The results in this text go back to patent US7977304B2, “FK 228 derivates as HDAC inhibitors” (University of Southampton Highfield, priority 2005, dated 2011).

The test system of one assay is MCF7 cells. Kind of assay: Activity Assay 3: cell cycle distribution and survival by propidium iodide flow cytometry. The format is cell-based. The conditions noted are these: MCF7, ~10×IC50 for growth inhibition, 24, 48 or 72 hours. The protocol: Method; MCF7 cells were incubated with indicated concentrations of compounds, or left untreated as a control, for various times, as detailed in the figure legends. Cells were collected and the proportion of cells in different phases of the cell cycle determined using propidium iodide staining and flow cytometry as previously described (Purohit et al., Int J Ca 85, 584-9 2000). The proportion of cells with <G0/G1 content (pre G0) relative to total cells was calculated first. The proportion of cells in different cell cycle phases (G0/G1, S, G2/M) was calculated as a proportion of all cells in the cell cycle (i.e., total cells minus cells with <G0/G1 content).
MCF7 cells were incubated with the indicated concentrations of compounds (each equivalent to ˜10×IC50 values for growth inhibition), or DMSO as a solvent control, for 24, 48 or 72 hours. The proportion of cells in different phases of the cell cycle was determined by flow cytometry. Data shown are mean values ±SD, derived from two separate experiments, relative to untreated cells which are normalised to 1.
Background: A flow cytometer gives signals particle by particle.

The subject of assay [1] is A2780 ovarian cancer cells. Kind of assay: Activity Assay 6: CyQuant cell growth inhibition, A2780. In kind it is cell-based. The following applies: Homo sapiens, 96 h, A2780, 4 days. The protocol: We analysed the ability of compounds to inhibit the in vitro growth of human cancer cells. Cell proliferation assays were performed using the CyQuant™ assay system (Molecular Probes, Inc. USA) according to the manufacturer's instructions. MCF7 breast, A2780 ovarian and PC3 and LNCAP prostate cancer cells were plated in 96 well plates, at a density of 1000 cells for MCF7 cells or 5000 cells for M780/PC3/LNCAP cells, in 100 μl of cell culture medium per well. Compounds were added a minimum of 5 hours later, in serial dilutions in cell culture medium, in 100 μl volumes at 2× final concentration. Cell culture medium was removed after 4 (A2780, PC3 or LNCAP cells) or 6 days (MCF7 cells) by inversion of the plate onto blotting paper and cells were gently washed once with 200 μl PBS. Plates were frozen immediately for a minimum of one hour at −80° C. and then thawed. 200 μl of 1× CyQuant cell lysis buffer supplemented with dye, made according to the manufacturer's instruction, was added immediately to each well and incubated at room temperature for 3-5 minutes. Fluorescence was then measured for each well using a Cytofluor II Fluoresence Multiwell Plate Reader and CytoFluor II software with filters at 480 nm for excitation and 520 nm for emission maxima. Cell proliferation was determined for mean values of duplicate samples as percentages relative to untreated cell samples (=100%). Growth inhibition curves were used to derive IC50 values.

The test system of assay [2] is histone acetylation in cardiac myocytes. Kind of assay: Activity Assay 4: histone acetylation by immunoblotting, cardiac myocytes. In kind it is cell-based. The following applies: 24 hours. The protocol:
Method; Cardiac myocytes were prepared as described in Chembiochem. 2005 January; 6(1):162-70 and incubated with the indicated concentrations of compound 001 for 24 hours. MCF7 cells were incubated with the indicated concentrations of compound 001 for 24 hours. Expression of total histone H4 acetylation, or specific acetylation of Histone H4-K8 or Histone H3-K9 was analysed by Western blotting, as previously described (Brimmell et al. Br J Cancer. 1999 November; 81(6):1042-51) using antibodies from Upstate Biotech.
(A) MCF7 cells were incubated with compound 001 for 24 hours. Histone H4 acetylation was measured by immunoblotting. (B) Cardiac myocytes were incubated with indicated compound 001 for 24 hours. Histone H4 acetylation was measured by immunoblotting. (C) MCF7 cells were incubated with compound 001 for 24 hours. Histone H3-K9 and Histone H4-K8 acetylation was measured by immunoblotting
In general terms: Immunoblotting shows a protein as a band on a membrane.

Assay [3] deals with acetylated histone H4 in primary chronic lymphocytic leukaemia cells. Kind of assay: Histone H4 acetylation in primary chronic lymphocytic leukaemia cells. The format is cell-based. The following applies: data not shown.
Assay [4] concerns HUT78 T-cell leukaemia cells. Briefly: CyQuant cell proliferation assay, HUT78. In kind it is cell-based, human. The conditions noted are these: data not shown.
For assay [5], the system named is inflammation in Balb/c mice. Kind of assay: Activity Assay 8: oxazolone-induced ear inflammation in mice. The following applies: 24 hours; for Change in ear weight: Mean ± SD, 8 animals per group. In kind it is in vivo. The protocol:
We analysed the ability of compound 9A (the compound of formula (2) on page 7) to inhibit inflammation in mice. Balb/c mice were sensitised by application of 5% (w/v) oxazolone to abdominal shaved skin. After 7 days mice were challenged by topical application of 3% (w/v) oxalazone to the left ear and acetone to the right ear. After 30 minutes test compounds dissolved in acetone were applied to the ears (dorsal and ventral surface).

Assay [6] relates to HDAC responsive SV40 promoter. Kind of assay: Activity Assay 2: SV40 promoter-luciferase reporter in MCF7 derived 2.1.1 cells. In kind it is cell-based. The conditions noted are these: approx 16 hours. The protocol: Method. We generated a stable clone derived from MCF7 cells containing an integrated reporter construct with the SV40 immediate early promoter cloned upstream of the luciferase gene. MCF7 cells were transfected with pGL2-Basic (SV40/luciferase reporter) (Promega, UK) and pcDNA3 (expresses neomycin resistance gene) using Transfast transfection reagent. After 24 hours, cells were collected by trypsinisation and plated at low density. The following day, G418 was added to the growth medium. After ˜21 days, individual drug-resistant colonies were isolated and cultured. […] To test the effects of compound 001, 2.1.1 cells were incubated with various concentrations of compound 001 or an equivalent amount of DMSO as a control. The following day, cells were collected and luciferase activity detected using the Promega luciferase assay system and a TopCount (Perkin-Elmer).
MCF7 derived cells containing a stably integrated SV40 promoter-luciferase reporter plasmid were treated with the indicated concentrations of compound 001, or DMSO as a solvent control. Luciferase activity was determined after approx 16 hours. The data shown are derived from a single experiment performed in duplicate and are representative of multiple experiments.
(In a reporter assay the amount or activity of a reporter protein is the signal.)

pIC50: −log10 of the molar value.

For the compound `CC(C)[C@H]1NC(=O)[C@H]2CSSCC/C=C/[C@H](CC(=O)N[C@H](C)C(=O)N2)OC(=O)CNC1=O` [Compound 9A, (E)-(1S,7R,10S,21R)-7-isopropyl-21-methyl-2-oxa-12,13-dithia-5,8,20,23-tetraaza-bicyclo[8.7.6]tricos-16-ene-3,6,9,19,22-pentaone], the “cell cycle distribution and survival” value with MCF7 cells is “induce a predominant G2/M phase arrest and cell death”. The compound further gave a pIC50 in assay [1] of 6.89. Moreover, in assay [2], the “Histone H4 acetylation, cardiac myocytes” value is recorded as “induces the accumulation of acetylated histone H4”. Also, the “levels of acetylated histone H4, primary chronic lymphocytic leukaemia cells” value in assay [3] is “increased the levels of acetylated histone H4”. Also, the “growth of HUT78 T-cell leukaemia cells” value in assay [4] is “inhibited the growth of these cells”. Besides, in assay [5] (0.1% topical in acetone), the “% inhibition compared to vehicle” value was found to be 33.3% and the “Change in ear weight” value is given as 42.4 ± 4.3 mg. For the same compound, in assay [5] (1% topical in acetone), the “% inhibition compared to vehicle” value was found to be 63.0% and the “Change in ear weight” value was found to be 23.5 ± 3.2 mg. The “activity of the HDAC responsive SV40 promoter (luciferase activity)” value in assay [6] is “effectively reverses HDAC-mediated repression of the SV40 immediate early promoter”.

As a reminder, the pIC50 is the negative decadic logarithm of the IC50, by convention in mol/L. Lower therefore signals a high IC50.
